Laboratory results from ChEMBL document CHEMBL1201862, “PubChem BioAssay data set” (2004).
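Step 1: Grow cells in 96-well plates. Step 2: Expose to compound for 48 hours at 5 concentrations. Step 3: Interpolate endpoints linearly; if unreached, use highest concentration. GI50 marks 50% less growth.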 Activity calls are given as the source filed them. Rule as the data show it: active = GI50 up to about 1.1 µM and inactive = higher.

What was measured:
Test in all cases: NCI anticancer screen, dose series, 48 h
HL-60 = system: HL-60
IGROV-1 = system: IGROV-1
MCF7 = system: MCF7
BT-549 = system: BT-549
HCC 2998 = system: HCC 2998
MDA-MB-435 = system: MDA-MB-435
786-0 = system: 786-0
SK-OV-3 = system: SK-OV-3
NCI-H460 = system: NCI-H460
T47D = system: T47D
CCRF-CEM = system: CCRF-CEM
SF-539 = system: SF-539
EKVX = system: EKVX
HT-29 = system: HT-29
COLO 205 = system: COLO 205
K562 = system: K562
SF-295 = system: SF-295
SR = system: SR
PC-3 = system: PC-3
LOX IMVI = system: LOX IMVI
DU-145 = system: DU-145
SW-620 = system: SW-620
OVCAR-3 = system: OVCAR-3
SN12C = system: SN12C
TK-10 = system: TK-10
MDA-N = system: MDA-N
HOP-92 = system: HOP-92
OVCAR-8 = system: OVCAR-8
OVCAR-5 = system: OVCAR-5
SNB-75 = system: SNB-75
SK-MEL-5 = system: SK-MEL-5
ACHN = system: ACHN
A549 = system: A549
SK-MEL-2 = system: SK-MEL-2
OVCAR-4 = system: OVCAR-4
MDA-MB-231 = system: MDA-MB-231
HCT-116 = system: HCT-116
SNB-19 = system: SNB-19
HOP-62 = system: HOP-62
UO-31 = system: UO-31
NCI-H23 = system: NCI-H23
RPMI-8226 = system: RPMI-8226
M14 = system: M14
UACC-62 = system: UACC-62
U-251 = system: U-251
UACC-257 = system: UACC-257
NCI/ADR-RES = system: NCI/ADR-RES
SK-MEL-28 = system: SK-MEL-28
NCI-H226 = system: NCI-H226
RXF 393 = system: RXF 393
CAKI-1 = system: CAKI-1
MOLT-4 = system: MOLT-4
KM12 = system: KM12
HCT-15 = system: HCT-15
Malme-3M = system: Malme-3M
NCI-H522 = system: NCI-H522
SF-268 = system: SF-268
Hs-578T = system: Hs-578T

Measured: GI50

Cn1c2nc3ccccc3c-2cc2ccccc21 [NEOCRYPTOLEPINE]
inactive: HL-60 2.38 µM | IGROV-1 2.7 µM | MCF7 2.74 µM | BT-549 3.19 µM | HCC 2998 2.48 µM | MDA-MB-435 4.2 µM | 786-0 3.84 µM | SK-OV-3 6.47 µM | NCI-H460 2.38 µM | T47D 4.81 µM | CCRF-CEM 3.15 µM | SF-539 3.05 µM | EKVX 2.28 µM | HT-29 2.51 µM | COLO 205 2.93 µM | K562 3.41 µM | SF-295 4.59 µM | SR 2.2 µM | PC-3 3.3 µM | LOX IMVI 3.27 µM | DU-145 6.82 µM | SW-620 3.68 µM | OVCAR-3 5.18 µM

COc1cccc(-c2cccc(SC)n2)n1
27 µM: HCT-15
inactive: HL-60 12.1 µM | SN12C 36.8 µM | IGROV-1 27.2 µM | TK-10 39.2 µM | MDA-N 29.6 µM | MCF7 31.3 µM | HOP-92 19.5 µM | OVCAR-8 35.6 µM | BT-549 31.3 µM | OVCAR-5 29.2 µM | HCC 2998 23.4 µM | SNB-75 26.4 µM | MDA-MB-435 26.4 µM | 786-0 28.8 µM | SK-MEL-5 20.5 µM | SK-OV-3 56.5 µM | NCI-H460 29 µM | T47D 18.2 µM | ACHN 36.8 µM | A549 23.8 µM | CCRF-CEM 18.2 µM | SK-MEL-2 36.3 µM | OVCAR-4 36.2 µM | SF-539 32.1 µM | MDA-MB-231 40.4 µM | EKVX 17.7 µM | HT-29 21.8 µM | HCT-116 28.4 µM | SNB-19 40.7 µM | HOP-62 27.9 µM | UO-31 30.5 µM | NCI-H23 23.8 µM | RPMI-8226 23.4 µM | COLO 205 19.1 µM | M14 24 µM | K562 26.2 µM | UACC-62 36.2 µM | U-251 36.7 µM | SF-295 34.4 µM | UACC-257 21 µM | SR 18.1 µM | NCI/ADR-RES 28.4 µM | SK-MEL-28 29.6 µM | NCI-H226 15.8 µM | RXF 393 18.7 µM | PC-3 38.6 µM | CAKI-1 60 µM | LOX IMVI 33.1 µM | DU-145 34.4 µM | MOLT-4 21.5 µM | SW-620 32 µM | KM12 34 µM | OVCAR-3 20.8 µM

CC(C)(C)[Si](C)(C)OCC1OC(n2cc(I)c(=O)[nH]c2=O)C(O[Si](C)(C)C(C)(C)C)C1O[Si](C)(C)C(C)(C)C (configuration not stated)
29.8 µM: HCT-15
inactive: SN12C 26.9 µM | IGROV-1 17.7 µM | MCF7 12.9 µM | HOP-92 22.1 µM | OVCAR-8 12.7 µM | Malme-3M 53.3 µM | BT-549 24 µM | OVCAR-5 24.8 µM | SNB-75 16.1 µM | SK-MEL-5 16.6 µM | SK-OV-3 32.1 µM | NCI-H460 15.5 µM | T47D 17.1 µM | ACHN 15.2 µM | NCI-H522 9.68 µM | A549 11.4 µM | SK-MEL-2 > 10 µM | OVCAR-4 55.8 µM | SF-268 21.1 µM | MDA-MB-231 15.3 µM | EKVX 22 µM | HT-29 14.3 µM | SNB-19 19.5 µM | HOP-62 20.1 µM | Hs-578T 18.6 µM | UO-31 23.8 µM | COLO 205 19.1 µM | M14 15.7 µM | UACC-62 16.7 µM | SF-295 15.2 µM | UACC-257 10.5 µM | SR 28.1 µM | NCI/ADR-RES > 100 µM | NCI-H226 25.6 µM | PC-3 7.24 µM | LOX IMVI 12.5 µM | MOLT-4 10.7 µM | SW-620 14.6 µM | OVCAR-3 14.3 µM
